Experimental data published in the METLIN SMRT retention time set (Domingo-Almenara et al. 2019).

Test: gradient 5% acetonitrile 3 min, to 50% in 2 min, to 85% in 15 min, held 3 min, 100 µL/min
Settings: column: Zorbax Extend-C18 2.1 x 50 mm; eluents: water / acetonitrile, 0.1% formic acid
Summary of the method: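 Values are retention times taken from adduct peaks that software picked and an analyst inspected. The pure standards were run as mixtures of ~100 molecules on HPLC linked to a quadrupole time-of-flight mass spectrometer, in positive and negative ionization mode. A Zorbax Extend-C18 column (2.1 × 50 mm, 1.8 μm) was used at 100 μL/min with water and acetonitrile, each including 0.1% formic acid.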

Row | Structure (SMILES) | RP-LC retention time
1 | O=C(C1CCCN(c2ncnc3c2nc2n3CCCCC2)C1)N1CCCCCC1 (stereo unspecified) | 766 s
2 | O=C(c1cc2c(s1)CCC(C(=O)N1CCN(c3ccccn3)CC1)C2)N1CCCC1 (stereo unspecified) | 600 s
3 | CCCC(CCC)C(=O)NCCc1c[nH]c2cc(OC)ccc12 | 886 s
4 | COC[C@@H]1CN(Cc2ccc3cc[nH]c3c2)C[C@H]1c1nc(C)no1 | 631 s
5 | Cc1ccc(C(=O)N2CCCn3cc(-c4cccc(C#N)c4)nc32)cn1 | 636 s
6 | COCCCNC(=O)N1CCCC1c1nc(-c2cccc(C)c2)no1 (stereo unspecified) | 810 s
7 | COc1cccc(Oc2ncc(-c3cccc(C(=O)NC4CC4)c3)cn2)c1 | 797 s
8 | O=C(Nc1cccc(C(F)(F)F)c1)N1C[C@H]2C[C@H](C1)[C@H]1CCCC(=O)N1C2 | 731 s
9 | Nc1cc(C2CCN(C(=O)c3ccc4c(c3)OCO4)CC2)no1 | 651 s
10 | CCCCNC(=O)Cc1c(OC)ccc2cc(Br)ccc12 | 947 s
11 | CCc1nnc(-c2ccc(S(=O)(=O)N3CCCCC3)o2)o1 | 824 s
12 | O=C(Nc1ccccc1Cl)c1cnc(-c2ccc(F)cc2)nc1-c1ccncc1 | 1000 s
13 | CCOC(=O)c1nnn(-c2ccccc2OCC)c1C(=O)OCC | 970 s
14 | CCOC(=O)c1c(S(=O)(=O)N2CCC(C(=O)Nc3cccc(OC)c3)CC2)c(C)n(C)c1C | 834 s
15 | O=C(NCc1nc(-c2ccc3oc(-c4ccccc4)nc3c2)no1)c1ccccc1 | 1010 s
16 | Cc1ccc(NC(=O)N2C[C@H](c3nc(-c4ccncc4)no3)[C@@H](C)C2)cc1C | 858 s
17 | COc1ccc(-c2nc(NC3CCCC3)c3ccccc3n2)cc1 | 825 s
18 | Cc1noc(-c2ccnc(-n3ncc(C(=O)N4CCSCC4)c3C)c2)n1 | 785 s
19 | COCc1noc([C@@H]2CN(C(=O)c3ccc(Cl)s3)C[C@H]2C(N)=O)n1 | 676 s

Row | Structure (SMILES) | RP-LC retention time
20 | COc1ccc(C(=O)NC2CCN(c3cc(-c4ccc(OC)cc4)[nH]n3)C2)cc1 (stereo unspecified) | 706 s
21 | Cc1cc(-c2nnc(-c3ccc(F)cc3)o2)c(C)n1CC(=O)NCc1ccc2c(c1)OCO2 | 916 s
22 | COc1cn2c(cc1=O)C(=O)N(CCNC(=O)c1ccc(Br)o1)CC2 | 556 s
23 | CCc1csc(-c2ccc(N3CCN(C(=O)c4c(F)cccc4F)CC3)nc2)n1 | 976 s
24 | O=C(N1CCC(Cc2nc(-c3ccccc3)n[nH]2)C1)C1(c2ccccc2)CC1 (stereo unspecified) | 755 s
25 | Cc1ccc2c(c1)C(c1ccccc1)NCC(=O)N2 (stereo unspecified) | 544 s
26 | CCCNS(=O)(=O)c1c(C)sc(C)c1-c1cc(C(F)(F)F)on1 | 1130 s
27 | COc1ccc(-n2c(C)nc3ccc(NC(=O)c4cccc([N+](=O)[O-])c4C)cc3c2=O)cc1 | 779 s
28 | Cc1ccc(S(=O)(=O)N2CCc3c(c(-c4nnc(-c5ccccc5F)o4)nn3C)C2)cc1C | 988 s
29 | CCOc1ccc(-c2cc(=O)n(CCCC(=O)N3CCN(S(C)(=O)=O)CC3)cn2)cc1 | 680 s
30 | CC1=CC(=O)CC(C)(C)C1(O)/C=C/C(C)=C\C(=O)O (stereo unspecified) | 683 s
31 | CC(C)n1c(=O)oc2cc(-c3noc(-c4ccc5cc[nH]c5c4)n3)ccc21 | 1100 s
32 | O=C(c1ccco1)N1CCN(c2ccc(-c3noc(C4CC4)n3)cc2)CC1 | 864 s
33 | O=C(NCc1ccco1)c1cc(N2C(=O)CCS2(=O)=O)ccc1Cl | 675 s
34 | CCNC(=O)C1CCN(c2nc3ccc(-c4cccs4)nc3s2)CC1 | 815 s
35 | O=C(NCCCN1CCCCC1)c1cc2n(n1)CCCN(Cc1ccc(Cl)cc1)C2=O | 582 s
36 | CNC(=O)C1=CCN(C(=O)NC2CCCC2)CC1 | 615 s
37 | Cc1oc(-c2ccc(NC(=O)c3ccsc3)cc2)nc1Cn1cccn1 | 823 s
38 | CNC(=O)[C@@H]1CN(S(=O)(=O)c2ccc(Cl)s2)C[C@H]1c1n[nH]c(C)n1 | 656 s

Second part, the molecule after the results:

Row | RP-LC retention time | Structure (SMILES)
39 | 842 s | CC(C)CN1CCn2cc(S(=O)(=O)Nc3ccc(F)c(F)c3)cc2C1=O
40 | 705 s | COCc1noc([C@@H]2CC(F)(F)CN2C(=O)c2c(C)noc2C)n1
41 | 835 s | CCc1ccc(NC(=O)C2CCc3nc(N4CCOCC4)ncc3C2)cc1 (stereo unspecified)
42 | 740 s | CCc1nc(NC(=O)C2CC(=O)N(c3n[nH]c4cccc(F)c34)C2)sc1C (stereo unspecified)
43 | 794 s | Cc1ccc(C2CC(=O)c3cnc(Nc4nc(C)c5cccc(C)c5n4)nc3C2)cc1 (stereo unspecified)
44 | 991 s | Cc1ccccc1NC(=O)C1C(=O)N(C)C2(C)CC1c1ccccc1O2 (stereo unspecified)
45 | 819 s | Cc1cc(NC(=O)N(C)CC2CCOCC2)ccc1Br
46 | 935 s | Cc1ccc(S(=O)(=O)CC(=O)Nc2nc(-c3ccc4c(c3)OCCO4)cs2)cc1
47 | 602 s | CCc1cc(=O)n(CC(=O)NCc2ccccc2OC)c(N)n1
48 | 985 s | COc1ccc(S(=O)(=O)N2CCCC(C(=O)Nc3ccccc3F)C2)cc1Cl (stereo unspecified)
49 | 739 s | COC(=O)c1ccc(NC(=O)N2CCCC2c2cc(C)on2)cc1 (stereo unspecified)
50 | 898 s | COc1cccc(-c2noc(N3CCCC3)n2)c1
51 | 769 s | COCCNC(=O)C1CCCCN1S(=O)(=O)c1ccc(F)cc1 (stereo unspecified)
52 | 998 s | Cc1nc(-c2cn(C(C)C)c3ncccc23)sc1C(=O)Nc1ccc2c(c1)OCO2
53 | 793 s | COc1ccc(OC)c2sc(NC(=O)C3CCCCN3S(C)(=O)=O)nc12 (stereo unspecified)
54 | 608 s | CC1(C)CS(=O)(=O)N(c2cccc(C(=O)N3CCN(c4ccccn4)CC3)c2)C1=O
55 | 788 s | CCc1nc2c(NC(=O)NCc3ccc(F)cc3)cccn2n1
56 | 890 s | CCCn1c(=O)sc2cc(S(=O)(=O)N3CCC(C(=O)NC4CCCC4)CC3)ccc21
57 | 850 s | O=C(C1CC(=O)N(C2CCCC2)C1)N1CCC(c2c[nH]c3ccccc23)(c2c[nH]c3ccccc23)CC1 (stereo unspecified)
58 | 730 s | Cc1ccc(N2CCn3c2nc2c3c(=O)n(CC(=O)O)c(=O)n2C)cc1
59 | 922 s | COc1ccc([N+](=O)[O-])cc1NC(=O)N(C)Cc1ccco1
60 | 695 s | Cc1ccsc1C(=O)Nc1ccc(Cn2cncn2)cc1
61 | 761 s | Cn1nc(-c2nc(C(C)(C)C)no2)ccc1=O
62 | 813 s | c1cncc(CN2CC(Oc3ccc(-c4noc(-c5ccncc5)n4)cc3)C2)c1
63 | 1070 s | Cc1nc(C2(C)CCN(S(=O)(=O)c3cc(C)c(C)cc3C)CC2)no1
64 | 902 s | O=C(Nc1cccc(F)c1)C(=O)c1cn(CC(=O)N2CCOCC2)c2ccccc12
65 | 650 s | C[C@@H]1O[C@@H](O[C@H]2[C@H](Oc3cc(O)c(C(=O)CCc4ccc(O)cc4)c(O)c3)O[C@H](CO)[C@@H](O)[C@@H]2O)[C@H](O)[C@H](O)[C@H]1O
66 | 593 s | O=C(O)c1nnn(-c2ccc3c(c2)OCCO3)c1-c1ccncc1
